Results reported in patent publication US5593970A, “Heterocyclic anthracycline analogs” (priority 1994, dated 1997).
Counter-ions that a name gives are not always drawn.

How the values were obtained:
MATB.WT = experiment: Soft agar colony formation disk diffusion assay; format: cell-based, rat
Outline: (§1)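 Anti-clonogenic activity is scored as the distance from the drug-loaded disk edge to the closest colony of more than 50 cells. Solid tumour and leukaemia lines are plated in separate dishes in two-layer soft agar and incubated 10-20 days at 37° C.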

MATB/ADR = experiment: Soft agar colony formation disk diffusion assay; format: cell-based, rat
Outline: as §1

B16 = experiment: Soft agar colony formation disk diffusion assay; format: cell-based, murine
Outline: as §1

LL = experiment: Soft agar colony formation disk diffusion assay; format: cell-based, murine
Outline: as §1

M5076 = experiment: Soft agar colony formation disk diffusion assay; format: cell-based, murine
Outline: as §1

P388/ADR = experiment: Soft agar colony formation disk diffusion assay; format: cell-based, murine
Outline: as §1

P388 = experiment: Soft agar colony formation disk diffusion assay; format: cell-based, murine
Outline: as §1

LOX = experiment: Microculture tetrazolium assay; format: cell-based; settings: read-out: IC50
NSC Lung = experiment: NCI assay, average per cancer type; settings: for CC50 / GI50: Homo sapiens; for CC50: 48 h, read-out: Average LOG10 LC50; for GI50: read-out: Average LOG10 GI50
SC Lung = experiment: NCI assay, average per cancer type; settings: for CC50 / GI50: Homo sapiens; for CC50: 48 h, read-out: Average LOG10 LC50; for GI50: read-out: Average LOG10 GI50
Colon = experiment: NCI assay, average per cancer type; settings: for CC50 / GI50: Homo sapiens; for CC50: 48 h, read-out: Average LOG10 LC50; for GI50: read-out: Average LOG10 GI50
Renal = experiment: NCI assay, average per cancer type; settings: for CC50 / GI50: Homo sapiens; for CC50: 48 h, read-out: Average LOG10 LC50; for GI50: read-out: Average LOG10 GI50
solid tumors = experiment: NCI assay, mean potency in solid tumors; settings: for CC50 / GI50: Homo sapiens; for CC50: 48 h, read-out: Average LOG10 LC50, Mean Potency in solid tumors; for GI50: read-out: Average LOG10 GI50, Mean Potency in solid tumors
tumor cell lines = experiment: NCI sulforhodamine B assay, all cell lines; settings: for CC50 / IC100 / GI50: Homo sapiens; for CC50 / IC100: 48 h; for CC50: read-out: Log10 LC50, Mean / MG-MID, all cell lines (converted); for IC100: read-out: Log10 TGI, Mean / MG-MID, all cell lines; for GI50: read-out: Log10 GI50, Mean / MG-MID, all cell lines (converted)

Row | Molecule | zone of inhibition (MATB.WT; 10 μg/DISK) [Zone Units] | zone of inhibition (MATB.WT; 100 μg/DISK) [Zone Units] | zone of inhibition (MATB/ADR; 10 μg/DISK) [Zone Units] | zone of inhibition (MATB/ADR; 100 μg/DISK) [Zone Units] | zone of inhibition (B16; 10 μg/DISK) [Zone Units] | zone of inhibition (B16; 100 μg/DISK) [Zone Units] | zone of inhibition (LL; 100 μg/DISK) [Zone Units] | zone of inhibition (M5076; 10 μg/DISK) [Zone Units] | zone of inhibition (M5076; 100 μg/DISK) [Zone Units] | zone of inhibition (P388/ADR; 10 μg/DISK) [Zone Units] | zone of inhibition (P388/ADR; 100 μg/DISK) [Zone Units] | zone of inhibition (P388; 10 μg/DISK) [Zone Units] | zone of inhibition (P388; 100 μg/DISK) [Zone Units] | CC50 (NSC Lung) [µM] | GI50 (NSC Lung) [µM] | GI50 (SC Lung) [µM] | CC50 (Colon) [µM] | GI50 (Colon) [µM] | CC50 (Renal) [µM] | GI50 (Renal) [µM] | also measured
1 | CCOC(=O)[C@@H]1CC2=C(C(=O)c3c(c(O)c4ccccc4c3OC(C)=O)C2=O)[C@@H](O)O1 (mixture of isomers) [BCH-658, (1S,3S) and (1R,3R) Ethyl[11-acetoxy-1,6-dihydroxy-5,12-dioxo-3,4,5,12-tetrahydroanthraceno (2,3-c)pyran-3-yl]formate] | 0 | 0 | 0 | 0 | 0 | 0 | 51.9 ± 21.5 | 26.6 ± 13.6 | 76.2 ± 21.5 | 18.3 ± 8.6 | 51.3 ± 20.7 | 42.7 ± 17.2 | 61.0 ± 0.0 | > 100 | > 100 | > 100 | > 100 | 61.7 | > 100 | 46.8 | IC50 (LOX): 66.2 µM; CC50 (SC Lung): > 100 µM; CC50 (solid tumors): > 100 µM; GI50 (solid tumors): 51.3 µM; CC50 (tumor cell lines): 100 µM; IC100 (tumor cell lines): 97.7 µM; GI50 (tumor cell lines): 70.8 µM
2 | CCOC(=O)[C@@H]1CC2=C(C(=O)c3cc4ccccc4c(OC(C)=O)c3C2=O)[C@@H](O)O1 (mixture of isomers) [BCH-660, (1S,3S) and (1R,3R)-Ethyl-[6-acetoxy-1-hydroxy-5,12-dioxo-3,4,5,12-tetrahydroanthraceno (2,3-c)pyran-3-yl]formate] | 137.2 ± 21.5 | 137.2 ± 21.5 | 24.4 ± 8.6 | 161.5 ± 30.4 | 6.1 ± 8.6 | 85.4 ± 8.6 | 55.0 ± 8.4 | 24.4 ± 8.6 | 61.0 ± 0.0 | 6.1 ± 8.6 | 54.9 ± 8.6 | 18.3 ± 8.6 | 54.9 ± 0.0 | 19.5 | 0.977 | 1 | > 100 | 0.617 | 7.94 | 0.912 | IC50 (LOX): 9.84 µM; CC50 (SC Lung): > 100 µM; CC50 (solid tumors): 11.2 µM; GI50 (solid tumors): 0.891 µM; antiproliferative and cytotoxic activity in words (tumor cell lines): strong antiproliferative (GI50) and potent cytotoxic (LC50) activities; CC50 (tumor cell lines): 21.4 µM; IC100 (tumor cell lines): 2.82 µM; GI50 (tumor cell lines): 0.813 µM
3 | COC(=O)[C@H]1CC2=C(C(=O)c3c(c(OC)c4ccccc4c3O)C2=O)[C@H](O[C@H]2C[C@H](NC(=O)C(F)(F)F)[C@H](O)[C@H](C)O2)O1 (mixture of isomers) [BCH-675, (1'S,1S,3R) and 1'S,1R,3S) Methyl(11-hydroxy-6-methoxy-1-[2',3',6'-trideoxy-3-trifluoroacetamido-4'-hydroxy-L-lyxohexopyranose]-5,12-dioxo-3,4,5,12-tetrahydroanthra-ceno[2,3-c]pyran-3-yl) formate] | 0 | 32.5 ± 9.3 | 22.3 ± 3.5 | 59.4 ± 8.6 | 0 | 0 | 264.0 ± 38.0 | 0 | 142.0 ± 35.2 | 10.1 ± 9.3 | 146.3 ± 32.3 | 0 | 152.5 ± 30.5 | 56.2 | 9.33 | 7.24 | 85.1 | 8.71 | 56.2 | 9.12 | zone of inhibition (LL; 10 μg/DISK): 75.2 ± 40.5 Zone Units; IC50 (LOX): 4.29 µM; CC50 (solid tumors): 66.1 µM; GI50 (solid tumors): 8.32 µM; CC50 (tumor cell lines): 57.5 µM; IC100 (tumor cell lines): 21.4 µM; GI50 (tumor cell lines): 7.94 µM
4 | CCOC(=O)C1CC2=C(CO1)C(=O)c1cc3ccccc3c(O)c1C2=O (stereo not shown) [BCH-653, Ethyl(6 and 11 hydroxy-5,12-dioxo-3,4,5,12-tetrahydro-anthraceno[2,3-c]pyran-3-yl)]formate] | – | 0 | – | 0 | – | 0 | 18.3 ± 0.0 | – | 85.4 ± 25.8 | – | 66.8 ± 8.2 | – | 64.0 ± 4.2 | > 100 | 44.7 | 28.8 | > 100 | 35.5 | > 100 | 57.5 | CC50 (SC Lung): > 100 µM; CC50 (solid tumors): > 100 µM; GI50 (solid tumors): 39.8 µM; CC50 (tumor cell lines): 100 µM; IC100 (tumor cell lines): 100 µM; GI50 (tumor cell lines): 42.7 µM
5 | Methyl(11-hydroxy-5,12-dioxo-3,4,5,12-tetrahydroanthraceno[2,3-c]pyran-3-yl)ketone and Methyl(5-hydroxy-5,12-dioxo-3,4,5,12-tetrahydroanthraceno[2,3-c]pyran-3-yl)ketone [BCH-687] | 42.7 ± 6.1 | 97.6 ± 20.0 | 69.1 ± 7.0 | 101.6 ± 35.2 | 34.6 ± 3.6 | 70.1 ± 13.0 | 182.6 ± 35.2 | 0 | 410.8 ± 46.5 | 0 | 153.6 ± 30.6 | 81.3 ± 30.0 | 183.0 ± 81.0 | – | – | – | – | – | – | – | zone of inhibition (LL; 10 μg/DISK): 62.8 ± 30.7 Zone Units; Average LOG10 GI50 (NSC Lung; NSC Lung): -4.81 ± 0.35 log molar; Average LOG10 GI50 (SC Lung; SC Lung): -5.09 ± 0.25 log molar; Average LOG10 GI50 (Colon; Colon): -4.95 ± 0.28 log molar; Average LOG10 GI50 (Renal; Renal): -4.69 ± 0.23 log molar; Average LOG10 GI50, Mean Potency in solid tumors (solid tumors; solid tumors): -4.87 ± 0.17 log molar; antiproliferative and cytotoxic activity in words (tumor cell lines): significant antiproliferative (GI50) and cytotoxic (LC50) activities in solid tumors; Log10 GI50, Mean / MG-MID (tumor cell lines; all cell lines): -4.85 log molar; Log10 TGI, Mean / MG-MID (tumor cell lines; all cell lines): -4.37 log molar
